Measurements taken from patent US20250241927A1, “MEDICAMENT COMPRISING A P2X4 RECEPTOR ANTAGONIST FOR PREVENTING OR TREATING NOCICEPTIVE PAIN AND/OR VISCERAL PAIN” (NIPPON CHEMIPHAR CO., LTD., priority 2021, published 2025).
“Also recorded” adds a separate entry of the source. Where two headings read alike, the source gives them in different places.

Tests used:
Format in all cases: in vivo, rat
[1] = tested on: occludin expression in colonic mucosa; test: Occludin expression in colonic tissue of DNBS-induced rats by western blotting; conditions: 10 mg/kg
[2] = Intervention test: body weight of DNBS-treated rats; conditions: Day 1 vs Day 8, DNBS weight loss approximately 10%, not significant
Procedure: (§1) In addition, in order to evaluate an effect of repeated administration of a P2X4 antagonist, two different tests (that is, prevention test and intervention test) were adopted. In the prevention test, the test medicament was administered daily to the rats immediately after the delivery of DNBS (Day 1), and the treatment was continued until the rats were sacrificed on the 6th day (Day 6). In the intervention test, the daily treatment with the medicament began 2 days after the delivery of DNBS (Day 3), and the rats were sacrificed on the 8th day (Day 8).
In the test, the administration of the compounds began 2 days after the delivery of DNBS (Day 3) and was continued until the rats were sacrificed on the 8th day (Day 8). Evaluation was performed 8 days after the induction of colitis (Day 8) and 24 hours after the last treatment with Compound A (A) and Compound B (B). After the test, the animals were sacrificed, and macroscopic damage scores were assigned to their colons (FIG. 3C and FIG. 3D). In FIG. 3E and FIG. 3F, weights (g) of the animals before the DNBS injection (Day 1) and at the end of the intervention treatment with Compound A and Compound B (Day 8) are reported, respectively.

[3] = tested on: colonic damage in rats induced by the intrarectal injection of DNBS; test: Intervention test: macroscopic colonic damage score in DNBS-treated rats; conditions: intervention test: daily from Day 3 to Day 8
Procedure: (§2) Colitis was induced by intrarectal administration of 15 mg of 2,4-dinitrobenzenesulfonic acid (DNBS; Sigma-Aldrich S.r.l., Milano, Italia) in 0.25 ml of 50% ethanol via a polyethylene PE-60 catheter inserted approximately 8 cm into the anus, while the rat was under short-term anesthesia by isoflurane (2%). To control rats, 0.25 ml of a vehicle was administered.
(§3) In addition, in order to evaluate an effect of repeated administration of a P2X4 antagonist, two different tests (that is, prevention test and intervention test) were adopted. […]
(§4) The macroscopic criteria were as follows: • presence of adhesion between colon and another intraperitoneal organ (0-2: no adhesions: 0 points, adhesion with only one adjacent organ: 1 point, and adhesions with a plurality of adjacent organs: 2 points); • consistency of colon fecal matter (indirect marker of diarrhea; 0-2: formed stool: 0 points, loose stool: 1 point, and liquid stool: 2 points); • thickening of colonic wall (mm: 1 point was scored for 1 mm); and • presence and spread of hyperemia and macroscopic mucosal damage (0-5: none: 0 points, hyperemic: 1 point, ulcers without hyperemia or thickening of intestinal wall: 2 points, ulcer with inflammation at one site: 3 points, ulcers with inflammation at two or more sites: 4 points, and wide site of damage exceeding 1 cm along length of colon: 5 points). […]

[4] = Prevention test: body weight of DNBS-treated rats; conditions: Day 1 vs Day 6, DNBS weight loss approximately 10%, not significant
Procedure: as §1
Visceral sensitivity was evaluated by measuring AWR to colorectal distension (0.5 to 3 mL). In the prevention test, the test medicament was administered daily to the rats immediately after the administration of DNBS, and the treatment was continued until the rats were sacrificed on the 6th day (Day 6). The evaluation was performed 6 days after the induction of colitis and 24 hours after the last treatment with Compound A (A) and Compound B (B). After the test, the animals were sacrificed, and macroscopic damage scores were assigned to their colons (FIG. 2C and FIG. 2D). In FIG. 2E and FIG. 2F, weights (g) of the animals before the DNBS injection (Day 1) and at the end of the preventive treatment with Compound A and Compound B (Day 6) are shown, respectively.

[5] = tested on: visceral pain (visceral hypersensitivity) in rats induced by intrarectal injection of DNBS; test: Acute administration test: abdominal withdrawal reflex (AWR) to colorectal distension in DNBS-treated rats
Procedure: (§5) Male Sprague-Dawley rats (Envigo, Varese, Italy) weighing approximately 300 g at the beginning of a test were used. The animals were housed in Centro Stabulazione Animali da Laboratorio (CeSAL, University of Florence) and used at least one week after their arrival. Four rats were raised per cage (size 26×41 cm). The animals were fed with standard laboratory diet and tap water ad libitum and kept at 23±1° C. with a 12-hour light/dark cycle (light at 7:00 in the morning). All animal manipulations were carried out according to the European Community Guidelines for Animal Care (DL116/92) and the application of European Communities Council Directive of Nov. 24, 1986 (86/609/EEC). The ethical policy of the University of Florence complies with the Guide for the Care and Use of Laboratory Animals of the US National Institutes of Health (NIH Publication No. 85-23, revised 1996, University of Florence assurance number: A5278-01). Formal approval to conduct the experiments described was obtained from the Animal Subjects Review Board of the University of Florence. Experiments involving animals have been reported according to ARRIVE guidelines (McGrath and Lilley, Br. J. Pharmacol. 2015; 172:3189-3193). All efforts were made to minimize suffering of the animals and to reduce the number of animals used.
as §2, with “To control rats, 0.25 ml of a vehicle was administered.” left out
Compound A and Compound B were dissolved in water and orally administered 30 minutes before the beginning of a test, and an acute effect was evaluated.
(§6) Visceral sensitivity to colorectal distension (CRD) was evaluated by measurement of abdominal withdrawal reflex (AWR) in conscious animals using semiquantitative scores (Lucarini et al., Cells. 2020; 9 (8): E1772). […]
Visceral sensitivity was evaluated by measuring abdominal withdrawal reflex (AWR) to colorectal distension (0.5 to 3 mL).

[6] = tested on: visceral pain (visceral hypersensitivity) in rats induced by intrarectal injection of DNBS; test: Intervention test (repeated administration): AWR to colorectal distension in DNBS-treated rats; conditions: for effect on visceral pain compared with the treatment with dexamethasone: intervention test; for onset of visceral pain (visceral hypersensitivity): intervention test: daily from Day 3 to Day 8, evaluated Day 8, 24 hours after last treatment
Procedure: as §5, §2, §1
Visceral sensitivity to colorectal distension (CRD) was evaluated by measurement of abdominal withdrawal reflex (AWR) in conscious animals using semiquantitative scores (Lucarini et al., Cells. 2020; 9 (8): E1772). Briefly, the rats were anesthetized with isoflurane. A lubricated latex balloon (length: 4.5 cm) that is assembled into an embolectomy catheter by being attached to a polyethylene tube to be connected to a syringe filled with water was inserted into the rectum and the descending colon of adult rats through the anus. […]

[7] = tested on: visceral pain (visceral hypersensitivity) in rats induced by intrarectal injection of DNBS; conditions: prevention test: daily from Day 1 to Day 6, evaluated 6 days after colitis induction, 24 hours after last treatment
Procedure: as §5, with “Experiments involving animals have been reported according to ARRIVE guidelines (McGrath and Lilley, Br. J. Pharmacol. 2015; 172:3189-3193). All efforts were made to minimize suffering of the animals and to reduce the number of animals used.” left out
as §6
Visceral sensitivity was evaluated by measuring AWR to colorectal distension (0.5 to 3 mL). […]

[8] = tested on: colonic damage in rats induced by the intrarectal injection of DNBS; test: Prevention test: macroscopic colonic damage score in DNBS-treated rats; conditions: prevention test: daily from Day 1 to Day 6
Procedure: as §2, §3, §4

| Structure (SMILES) | occludin expression in inflamed tissues compared to the DNBS-induced rats ([1]; listed as Compound B) | weight loss caused by DNBS [2] | colonic damage (macroscopic damage score) [3] | weight loss caused by DNBS [4] | AWR to colorectal distension ([5]; acute oral administration 10 and 30 mg/kg, colorectal distension 1 to 2 mL) | effect on visceral pain compared with the treatment with dexamethasone [6] | onset of visceral pain (visceral hypersensitivity) [6] | onset of visceral pain (visceral hypersensitivity) [7] | colonic damage (macroscopic damage score) [8] | occludin expression in inflamed tissues compared to the DNBS-induced rats ([1]; listed as Compound A, sodium salt) | visceral pain threshold ([5]; acute administration, higher doses, DNBS animals) | AWR to colorectal distension ([5]; acute oral administration 10 to 30 mg/kg, 30 minutes before test, seven days after DNBS) |
| --- | --- | --- | --- | --- | --- | --- | --- | --- | --- | --- | --- | --- |
| O=C1CC(=O)N(c2ccc(NC(=O)c3ccccc3I)cc2)c2ccc3ccccc3c2N1 [Compound B48, 5-[4-(2-iodobenzoylamino)phenyl]-1H-naphtho[1,2-b][1,4]diazepine-2,4(3H,5H)-dione] | increased; also recorded: counteract | does not affect | significant reduction | did not affect | significantly reduced | more effective | significantly reduces | counteracted | counteracted | – | – | – |
| O=C1CC(=O)N(c2cccc(-c3noc(=S)[nH]3)c2)c2ccc3ccccc3c2N1.[Na] [Compound A17, 5-[3-(5-thioxo-4H-[1,2,4]oxadiazol-3-yl)phenyl]-1H-naphtho[1,2-b][1,4]diazepine-2,4(3H,5H)-dione sodium salt] | – | does not affect | significant reduction | did not affect | – | more effective | significantly reduces | counteracted | counteracted | increased; also recorded: counteract | returned to a control value | significantly and dose-dependently decreased |
